Source: patent publication US11534412B2, “Application of totarol and pharmaceutical composition containing totarol” (Emergopharm SP. Z O.O. SP.K., priority 2017, dated 2022)

System: Enterococcus faecalis - clinical strain
Experiment: Determination of the MIC value of totarol, broth dilution in 96-well plates with OD and quantitative culture
Assay type: cell-based
Conditions: for OD, average of 3 measurements: 620 nm
Method: Test of antibacterial activity of totarol using DMI (dimethylisosorbide) as a solvent.
1 ml of the suspension was collected to 9 ml of a TSB broth ([…]). Suspensions with a dilution of 10^−6 were prepared in the described way. A suspension with a cell density of 10^5 cfu/ml was selected for further investigations. For each strain, 2 96-well plates were prepared: the first one was intended for the OD measurement, the second one—for quantitative culture on solid media. • A/ to wells B1-D1, B2-D2 and B-D 4-11, 100 µl of the broth were added; • B/ to wells B3-D3, 200 µl of the broth were added; • C/ to wells B1-D1, 1 µl of stock I was added; • D/ to wells B2-D2, 1 µl of stock II was added; • E/ to wells B3-D3, 2 µl of stock III were added. Using a multichannel pipette, 100 µl of the sample were collected from each of the B3-D3 wells and placed in wells B4-D4 (mixing by sucking the content in and letting it out for 5 times). The pipette tips were replaced and 100 µl of the content were collected from of the B4-D4 wells, and placed in wells B5-D5, mixing as previously. These operations were repeated through the wells B11-D11. The content in the B11-D11 wells was mixed, and 100 µl of the fluid were collected and discarded. This way, a series of dilutions of totarol samples in DMI in the range of 0.32% to 0.0004% was obtained. Then, 100 µl of a corresponding bacterial culture were added to the wells B, C, D 1-11. In consequence, a change in the final concentration range occurred, to 0.16%-0.0002%. Control Preparation: • Negative control: 100 µl of the broth+1 pl DMI were added to the Al well. • Positive control (I): 100 µl of the broth with the bacterial culture were added to the wells E1-G1. • Diluent positive control (II): 100 µl of the broth with the bacterial culture+1 pl DMI were added to the wells E2-G2. The OD value in the individual wells was read at the wavelength of 620 nm (read time 0). From the second 96-well plate, a culture was inoculated by a quantitative method from every dilution onto a well with a proper solid medium, and incubated for 24 h at 37° C. under aerobic or anaerobic conditions, depending on the strain. The plates were incubated under aerobic conditions or in an atmosphere of an elevated CO2 concentration (for the strains requiring it) in an incubator at 37° C. The OD was read after 8 h, 16 h, and 24 h, respectively. Before every OD measurement, the contents of the wells were mixed delicately. In parallel to the OD readout, cultures we inoculated from the second 96-well plate, from every dilution, into plates with a proper solid medium, and incubated for 24 h at 37° C., under aerobic or anaerobic conditions. For the analysis of the experimental results, an average value of the OD measurement obtained from three repetitions in the individual times (0, 8, 16, and 24 h) for the individual microbes (Gardnerella vaginalis, Streptococcus agalactiae, Enterococcus faecalis, Lactobacillus gasseri/plantarum) was taken. Additionally, the number of bacteria grown on solid media was taken into account. The results of the tests confirm the specific, concentration-dependent selectiveness, and the high antibacterial effectiveness of totarol against the pathogenic microorganisms: Gardnerella vaginalis, Streptococcus agalactiae, Enterococcus faecalis at low MIC values safe for bacteria of the Lactobacillus genus.

## CC(C)c1c(O)ccc2c1CC[C@H]1C(C)(C)CCC[C@]21C [Totarol, totarol]
E. faecalis
  MIC value: 0.0025%
Totarol 0.0002%, 0 h
  Inoculation cfu/ml: 4 × 10^5 cfu/ml
  OD, average of 3 measurements: 0.292
Totarol 0.0002%, 8 h
  Inoculation cfu/ml: 4.1 × 10^5 cfu/ml
  OD, average of 3 measurements: 0.295
Totarol 0.0002%, 16 h
  Inoculation cfu/ml: 2.1 × 10^6 cfu/ml
  OD, average of 3 measurements: 0.490
Totarol 0.0002%, 24 h
  Inoculation cfu/ml: 1.6 × 10^7 cfu/ml
  OD, average of 3 measurements: 0.681
Totarol 0.0004%, 0 h
  Inoculation cfu/ml: 3 × 10^5 cfu/ml
  OD, average of 3 measurements: 0.298
Totarol 0.0004%, 8 h
  Inoculation cfu/ml: 2.1 × 10^5 cfu/ml
  OD, average of 3 measurements: 0.303
Totarol 0.0004%, 16 h
  Inoculation cfu/ml: 1.1 × 10^6 cfu/ml
  OD, average of 3 measurements: 0.491
Totarol 0.0004%, 24 h
  Inoculation cfu/ml: 1.9 × 10^7 cfu/ml
  OD, average of 3 measurements: 0.677
Totarol 0.0007%, 0 h
  Inoculation cfu/ml: 2.5 × 10^5 cfu/ml
  OD, average of 3 measurements: 0.288
Totarol 0.0007%, 8 h
  Inoculation cfu/ml: 3.1 × 10^5 cfu/ml
  OD, average of 3 measurements: 0.291
Totarol 0.0007%, 16 h
  Inoculation cfu/ml: 3.8 × 10^5 cfu/ml
  OD, average of 3 measurements: 0.445
Totarol 0.0007%, 24 h
  Inoculation cfu/ml: 2.1 × 10^7 cfu/ml
  OD, average of 3 measurements: 0.602
Totarol 0.0013%, 0 h
  Inoculation cfu/ml: 4 × 10^5 cfu/ml
  OD, average of 3 measurements: 0.293
Totarol 0.0013%, 8 h
  Inoculation cfu/ml: 6 × 10^4 cfu/ml
  OD, average of 3 measurements: 0.297
Totarol 0.0013%, 16 h
  Inoculation cfu/ml: 6 × 10^4 cfu/ml
  OD, average of 3 measurements: 0.399
Totarol 0.0013%, 24 h
  Inoculation cfu/ml: 1 × 10^7 cfu/ml
  OD, average of 3 measurements: 0.549
Totarol 0.0025%, 0 h
  Inoculation cfu/ml: 5 × 10^5 cfu/ml
  OD, average of 3 measurements: 0.284
Totarol 0.0025%, 8 h
  Inoculation cfu/ml: 0 cfu/ml
  OD, average of 3 measurements: 0.297
Totarol 0.0025%, 16 h
  Inoculation cfu/ml: 0 cfu/ml
  OD, average of 3 measurements: 0.295
Totarol 0.0025%, 24 h
  Inoculation cfu/ml: 0 cfu/ml
  OD, average of 3 measurements: 0.302
Totarol 0.005%, 0 h
  Inoculation cfu/ml: 6 × 10^5 cfu/ml
  OD, average of 3 measurements: 0.302
Totarol 0.005%, 8 h
  Inoculation cfu/ml: 0 cfu/ml
  OD, average of 3 measurements: 0.349
Totarol 0.005%, 16 h
  Inoculation cfu/ml: 0 cfu/ml
  OD, average of 3 measurements: 0.320
Totarol 0.005%, 24 h
  Inoculation cfu/ml: 0 cfu/ml
  OD, average of 3 measurements: 0.296
Totarol 0.01%, 0 h
  Inoculation cfu/ml: 4.1 × 10^5 cfu/ml
  OD, average of 3 measurements: 0.302
Totarol 0.01%, 8 h
  Inoculation cfu/ml: 0 cfu/ml
  OD, average of 3 measurements: 0.419
Totarol 0.01%, 16 h
  Inoculation cfu/ml: 0 cfu/ml
  OD, average of 3 measurements: 0.368
Totarol 0.01%, 24 h
  Inoculation cfu/ml: 0 cfu/ml
  OD, average of 3 measurements: 0.306
Totarol 0.02%, 0 h
  Inoculation cfu/ml: 3.1 × 10^5 cfu/ml
  OD, average of 3 measurements: 0.322
Totarol 0.02%, 8 h
  Inoculation cfu/ml: 0 cfu/ml
  OD, average of 3 measurements: 0.384
Totarol 0.02%, 16 h
  Inoculation cfu/ml: 0 cfu/ml
  OD, average of 3 measurements: 0.374
Totarol 0.02%, 24 h
  Inoculation cfu/ml: 0 cfu/ml
  OD, average of 3 measurements: 0.371
Totarol 0.04%, 0 h
  Inoculation cfu/ml: 2.6 × 10^5 cfu/ml
  OD, average of 3 measurements: 0.552
Totarol 0.04%, 8 h
  Inoculation cfu/ml: 0 cfu/ml
  OD, average of 3 measurements: 0.667
Totarol 0.04%, 16 h
  Inoculation cfu/ml: 0 cfu/ml
  OD, average of 3 measurements: 0.555
Totarol 0.04%, 24 h
  Inoculation cfu/ml: 0 cfu/ml
  OD, average of 3 measurements: 0.538
Totarol 0.08%, 0 h
  Inoculation cfu/ml: 3.2 × 10^5 cfu/ml
  OD, average of 3 measurements: 0.448
Totarol 0.08%, 8 h
  Inoculation cfu/ml: 0 cfu/ml
  OD, average of 3 measurements: 0.539
Totarol 0.08%, 16 h
  Inoculation cfu/ml: 0 cfu/ml
  OD, average of 3 measurements: 0.499
Totarol 0.08%, 24 h
  Inoculation cfu/ml: 0 cfu/ml
  OD, average of 3 measurements: 0.491
Totarol 0.16%, 0 h
  Inoculation cfu/ml: 6 × 10^5 cfu/ml
  OD, average of 3 measurements: 0.638
Totarol 0.16%, 8 h
  Inoculation cfu/ml: 0 cfu/ml
  OD, average of 3 measurements: 0.651
Totarol 0.16%, 16 h
  Inoculation cfu/ml: 0 cfu/ml
  OD, average of 3 measurements: 0.510
Totarol 0.16%, 24 h
  Inoculation cfu/ml: 0 cfu/ml
  OD, average of 3 measurements: 0.369
